Here are results for eight molecules from ChEMBL document CHEMBL5465560, “Selectivity Literature for EUbOPEN Chemogenomic Library” (2024).

Test [1] deals with T1, Tyrosine-protein kinase receptor TYRO3 (Homo sapiens) (UniProt Q06418).
T1 sequence (whole entry): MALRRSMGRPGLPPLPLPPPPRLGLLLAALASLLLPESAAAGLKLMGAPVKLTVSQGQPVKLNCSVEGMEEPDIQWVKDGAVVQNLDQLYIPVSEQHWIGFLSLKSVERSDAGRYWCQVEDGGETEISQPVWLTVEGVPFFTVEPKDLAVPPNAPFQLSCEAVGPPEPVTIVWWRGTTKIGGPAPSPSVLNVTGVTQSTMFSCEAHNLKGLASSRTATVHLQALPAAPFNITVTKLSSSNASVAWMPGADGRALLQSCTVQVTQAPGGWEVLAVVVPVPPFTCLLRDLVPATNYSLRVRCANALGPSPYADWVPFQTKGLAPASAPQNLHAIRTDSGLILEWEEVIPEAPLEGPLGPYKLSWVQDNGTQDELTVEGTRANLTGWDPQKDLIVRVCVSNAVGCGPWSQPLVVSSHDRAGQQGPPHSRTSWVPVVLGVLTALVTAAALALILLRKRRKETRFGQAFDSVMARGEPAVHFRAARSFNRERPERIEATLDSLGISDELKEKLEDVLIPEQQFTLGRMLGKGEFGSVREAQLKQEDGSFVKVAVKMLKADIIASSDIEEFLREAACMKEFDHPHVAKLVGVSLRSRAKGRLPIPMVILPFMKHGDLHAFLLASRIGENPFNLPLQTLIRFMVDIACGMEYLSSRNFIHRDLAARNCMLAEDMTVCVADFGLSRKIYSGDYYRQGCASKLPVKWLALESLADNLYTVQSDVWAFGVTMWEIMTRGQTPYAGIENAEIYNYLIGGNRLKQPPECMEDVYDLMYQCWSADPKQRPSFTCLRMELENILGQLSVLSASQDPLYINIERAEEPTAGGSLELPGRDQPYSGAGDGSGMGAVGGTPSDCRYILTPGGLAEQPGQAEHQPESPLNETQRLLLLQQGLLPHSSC
Conditions: at 10 µM.

The test system of test [2] is Leucine-rich repeat serine/threonine-protein kinase 2 (Homo sapiens), Q5S007 [G2019S]. The note with it: at 10 µM.
Test [3] deals with Neuronal acetylcholine receptor; alpha4/beta2 (Homo sapiens) (UniProt P17787+P43681). The test is described as follows: Selectivity interaction (Panel of non-epigenetic targets (kinases, GPCRs, ion channels, and transporters, Eurofins) ) EUB0000271b CHRNA4. It is filed as protein-complex assay. Conditions: at 1 µM.
For test [4], the target named is AP2-associated protein kinase 1 (Homo sapiens, UniProt Q2M2I8). Briefly: Selectivity interaction (KinomeScan (DiscoverX)) EUB0000045b AAK1.
Test [5] deals with Serine/threonine-protein kinase PLK2 (Homo sapiens, UniProt Q9NYY3). The test is described as follows: Selectivity interaction (Kinase panel (Invitrogen)) EUB0000639a PLK2. The note with it: at 200 nM.
Test [6] concerns the target Mitogen-activated protein kinase 8 (Homo sapiens, UniProt P45983). The test is described as follows: Selectivity interaction (Kinase panel (Invitrogen)) EUB0000639a MAPK8. The note with it: at 200 nM.
The target of test [7] is Casein kinase I isoform epsilon (Homo sapiens, UniProt P49674). The test is described as follows: Selectivity interaction (KinomeScan (DiscoverX)) EUB0000229b CSNK1E. The note with it: at 10 µM.
The target in test [8] is T2, Protein kinase C iota type (Homo sapiens) (UniProt P41743).
T2 sequence (whole entry): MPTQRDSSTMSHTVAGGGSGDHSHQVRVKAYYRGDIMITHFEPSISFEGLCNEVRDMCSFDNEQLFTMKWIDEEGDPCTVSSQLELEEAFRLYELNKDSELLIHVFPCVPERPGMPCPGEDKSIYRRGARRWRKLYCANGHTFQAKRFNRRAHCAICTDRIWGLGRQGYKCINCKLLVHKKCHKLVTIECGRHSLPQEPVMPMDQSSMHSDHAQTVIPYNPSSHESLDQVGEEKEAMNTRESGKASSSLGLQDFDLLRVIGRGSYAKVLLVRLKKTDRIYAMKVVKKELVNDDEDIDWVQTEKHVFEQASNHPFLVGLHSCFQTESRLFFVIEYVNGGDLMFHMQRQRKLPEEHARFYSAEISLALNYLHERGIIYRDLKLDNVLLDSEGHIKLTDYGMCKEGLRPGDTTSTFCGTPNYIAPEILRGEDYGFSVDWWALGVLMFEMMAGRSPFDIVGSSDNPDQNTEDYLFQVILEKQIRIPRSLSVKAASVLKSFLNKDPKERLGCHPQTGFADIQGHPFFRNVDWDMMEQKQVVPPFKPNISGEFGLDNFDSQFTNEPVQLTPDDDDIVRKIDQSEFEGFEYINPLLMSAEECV
Briefly: Selectivity interaction (KinomeScan (DiscoverX)) EUB0000595a PRKCI. The note with it: at 10 µM.

Test [9] concerns the target Serine/threonine-protein kinase PAK 6 (Homo sapiens) (UniProt Q9NQU5). Briefly: Selectivity interaction (KinomeScan (DiscoverX)) EUB0000595a PAK6. The note with it: at 10 µM.
In test [10] the target is MAP kinase-activated protein kinase 2 (Homo sapiens, UniProt P49137). The test is described as follows: Selectivity interaction (Kinase panel (literature)) EUB0001199aCl MAPKAPK2. The note with it: at 1 µM.
Test [11] has as its target TGF-beta receptor type-2 (Homo sapiens) (UniProt P37173). Briefly: Selectivity interaction (KinomeScan (DiscoverX)) EUB0000618a TGFBR2. The note with it: at 10 µM.
In test [12] the target is Tyrosine-protein kinase Yes (Homo sapiens) (UniProt P07947). The test is described as follows: Selectivity interaction (KinomeScan (DiscoverX)) EUB0000618a YES1. Conditions: at 10 µM.
Tyrosine-protein kinase Yes (Homo sapiens), sequence (P07947 2-543 limits assumed): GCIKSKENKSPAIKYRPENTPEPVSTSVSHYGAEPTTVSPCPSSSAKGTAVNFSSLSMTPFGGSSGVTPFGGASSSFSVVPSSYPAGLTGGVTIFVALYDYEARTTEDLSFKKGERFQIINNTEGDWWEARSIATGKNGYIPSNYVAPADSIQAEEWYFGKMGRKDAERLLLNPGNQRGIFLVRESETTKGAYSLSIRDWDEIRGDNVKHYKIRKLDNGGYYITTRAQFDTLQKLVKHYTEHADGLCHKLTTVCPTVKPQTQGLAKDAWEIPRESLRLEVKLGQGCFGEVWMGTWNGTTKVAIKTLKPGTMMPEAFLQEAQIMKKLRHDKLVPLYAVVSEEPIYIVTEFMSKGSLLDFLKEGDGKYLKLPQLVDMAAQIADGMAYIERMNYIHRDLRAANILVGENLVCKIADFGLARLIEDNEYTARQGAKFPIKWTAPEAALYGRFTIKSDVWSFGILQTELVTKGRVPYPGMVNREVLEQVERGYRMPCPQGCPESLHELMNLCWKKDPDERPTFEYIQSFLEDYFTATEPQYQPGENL

AP2-associated protein kinase 1, sequence (Q2M2I8 whole entry, looked up): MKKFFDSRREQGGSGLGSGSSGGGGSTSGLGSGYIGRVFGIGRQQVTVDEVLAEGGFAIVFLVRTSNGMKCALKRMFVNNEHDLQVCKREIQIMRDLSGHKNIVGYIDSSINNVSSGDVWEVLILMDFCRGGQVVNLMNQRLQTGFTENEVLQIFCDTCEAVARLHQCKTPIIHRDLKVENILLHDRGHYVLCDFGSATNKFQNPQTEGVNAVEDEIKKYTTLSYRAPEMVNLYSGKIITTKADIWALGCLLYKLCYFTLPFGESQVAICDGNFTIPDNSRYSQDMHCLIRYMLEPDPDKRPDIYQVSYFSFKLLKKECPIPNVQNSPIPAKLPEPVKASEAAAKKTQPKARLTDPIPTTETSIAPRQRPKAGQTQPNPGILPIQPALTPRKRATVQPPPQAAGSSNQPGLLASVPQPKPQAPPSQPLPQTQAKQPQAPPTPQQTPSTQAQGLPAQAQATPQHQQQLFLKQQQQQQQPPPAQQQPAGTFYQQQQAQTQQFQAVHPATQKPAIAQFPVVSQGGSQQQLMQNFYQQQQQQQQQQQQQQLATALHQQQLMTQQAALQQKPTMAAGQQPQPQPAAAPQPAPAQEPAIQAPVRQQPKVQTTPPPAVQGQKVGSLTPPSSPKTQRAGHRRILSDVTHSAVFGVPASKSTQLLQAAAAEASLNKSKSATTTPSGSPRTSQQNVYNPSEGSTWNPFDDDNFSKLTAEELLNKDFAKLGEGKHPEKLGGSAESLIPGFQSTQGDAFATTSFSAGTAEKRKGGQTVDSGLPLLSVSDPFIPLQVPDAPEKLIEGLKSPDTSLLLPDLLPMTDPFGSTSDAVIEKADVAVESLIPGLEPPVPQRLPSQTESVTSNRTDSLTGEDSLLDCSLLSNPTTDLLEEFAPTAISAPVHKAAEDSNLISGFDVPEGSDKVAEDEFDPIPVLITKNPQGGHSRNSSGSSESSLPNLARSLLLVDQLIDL
Serine/threonine-protein kinase PAK 6 (Homo sapiens), sequence (Q9NQU5 whole entry, looked up): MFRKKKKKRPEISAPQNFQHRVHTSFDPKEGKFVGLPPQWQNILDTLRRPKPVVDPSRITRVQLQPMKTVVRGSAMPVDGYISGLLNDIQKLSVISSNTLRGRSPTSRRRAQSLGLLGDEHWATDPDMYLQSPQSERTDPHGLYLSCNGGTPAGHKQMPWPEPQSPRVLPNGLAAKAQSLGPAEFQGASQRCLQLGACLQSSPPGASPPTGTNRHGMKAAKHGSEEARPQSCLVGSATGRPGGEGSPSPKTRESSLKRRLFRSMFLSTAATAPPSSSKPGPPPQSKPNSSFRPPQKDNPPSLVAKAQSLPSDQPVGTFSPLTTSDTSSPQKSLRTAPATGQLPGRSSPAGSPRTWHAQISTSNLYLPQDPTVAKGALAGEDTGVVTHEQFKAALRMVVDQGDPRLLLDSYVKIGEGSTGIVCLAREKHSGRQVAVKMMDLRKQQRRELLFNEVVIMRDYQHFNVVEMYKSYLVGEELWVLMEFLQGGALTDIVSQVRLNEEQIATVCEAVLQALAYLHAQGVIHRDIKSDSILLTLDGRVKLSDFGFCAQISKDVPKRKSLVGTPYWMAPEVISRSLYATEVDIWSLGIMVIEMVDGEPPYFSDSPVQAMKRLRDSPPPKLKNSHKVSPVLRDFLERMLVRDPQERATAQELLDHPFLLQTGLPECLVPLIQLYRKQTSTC
MAP kinase-activated protein kinase 2, sequence (P49137 whole entry, looked up): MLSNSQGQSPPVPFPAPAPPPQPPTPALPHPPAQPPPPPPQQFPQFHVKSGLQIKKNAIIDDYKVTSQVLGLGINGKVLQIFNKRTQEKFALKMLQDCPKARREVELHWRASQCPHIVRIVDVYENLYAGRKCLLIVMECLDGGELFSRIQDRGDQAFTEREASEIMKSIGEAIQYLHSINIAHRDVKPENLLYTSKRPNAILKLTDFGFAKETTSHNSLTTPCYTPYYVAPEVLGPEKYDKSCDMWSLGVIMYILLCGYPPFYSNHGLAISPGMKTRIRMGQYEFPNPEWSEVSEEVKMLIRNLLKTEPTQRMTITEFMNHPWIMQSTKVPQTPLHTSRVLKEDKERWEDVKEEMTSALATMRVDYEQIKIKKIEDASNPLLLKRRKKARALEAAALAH
Casein kinase I isoform epsilon, sequence (P49674 whole entry, looked up, canonical isoform): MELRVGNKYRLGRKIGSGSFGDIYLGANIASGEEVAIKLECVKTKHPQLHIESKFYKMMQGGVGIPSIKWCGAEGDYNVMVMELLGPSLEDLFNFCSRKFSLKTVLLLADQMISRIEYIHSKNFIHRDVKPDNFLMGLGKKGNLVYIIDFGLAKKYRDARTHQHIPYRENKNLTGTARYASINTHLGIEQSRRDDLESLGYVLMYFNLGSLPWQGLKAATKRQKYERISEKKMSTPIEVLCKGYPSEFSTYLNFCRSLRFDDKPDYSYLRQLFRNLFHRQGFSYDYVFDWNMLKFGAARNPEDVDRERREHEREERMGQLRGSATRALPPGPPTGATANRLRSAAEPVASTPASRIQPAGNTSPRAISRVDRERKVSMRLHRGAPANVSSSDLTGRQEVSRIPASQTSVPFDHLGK
Mitogen-activated protein kinase 8, sequence (P45983 whole entry, canonical isoform): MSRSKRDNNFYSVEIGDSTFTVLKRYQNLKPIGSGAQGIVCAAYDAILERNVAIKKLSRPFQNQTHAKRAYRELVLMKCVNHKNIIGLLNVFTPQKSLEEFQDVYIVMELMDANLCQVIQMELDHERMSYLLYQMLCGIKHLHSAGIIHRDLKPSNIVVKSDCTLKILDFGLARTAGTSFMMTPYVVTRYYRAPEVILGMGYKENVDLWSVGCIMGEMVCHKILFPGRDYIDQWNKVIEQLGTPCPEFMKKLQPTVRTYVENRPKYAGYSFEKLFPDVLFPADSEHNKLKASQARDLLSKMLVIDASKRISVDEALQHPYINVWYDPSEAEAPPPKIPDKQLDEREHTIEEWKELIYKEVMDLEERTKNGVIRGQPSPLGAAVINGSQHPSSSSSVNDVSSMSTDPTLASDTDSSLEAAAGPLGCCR
Serine/threonine-protein kinase PLK2, sequence (Q9NYY3 whole entry, looked up): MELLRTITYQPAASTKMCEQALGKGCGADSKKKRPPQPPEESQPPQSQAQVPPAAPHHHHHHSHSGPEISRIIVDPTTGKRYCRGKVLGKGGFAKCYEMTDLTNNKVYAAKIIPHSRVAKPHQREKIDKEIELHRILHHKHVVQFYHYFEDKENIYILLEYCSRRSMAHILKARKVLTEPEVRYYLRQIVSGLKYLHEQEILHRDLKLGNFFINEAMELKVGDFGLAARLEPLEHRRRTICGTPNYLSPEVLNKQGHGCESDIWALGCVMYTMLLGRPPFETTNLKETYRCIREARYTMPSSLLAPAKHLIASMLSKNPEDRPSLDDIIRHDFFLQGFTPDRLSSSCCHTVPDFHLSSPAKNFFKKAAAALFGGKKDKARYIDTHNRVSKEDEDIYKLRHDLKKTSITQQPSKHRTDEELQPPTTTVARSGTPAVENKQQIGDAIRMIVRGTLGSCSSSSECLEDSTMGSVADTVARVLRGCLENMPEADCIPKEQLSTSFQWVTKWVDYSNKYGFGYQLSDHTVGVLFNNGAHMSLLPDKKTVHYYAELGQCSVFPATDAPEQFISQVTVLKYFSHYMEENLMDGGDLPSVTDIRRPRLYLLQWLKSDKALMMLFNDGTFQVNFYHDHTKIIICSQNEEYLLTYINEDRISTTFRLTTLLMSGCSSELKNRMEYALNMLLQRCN
TGF-beta receptor type-2 (Homo sapiens), sequence (P37173 whole entry): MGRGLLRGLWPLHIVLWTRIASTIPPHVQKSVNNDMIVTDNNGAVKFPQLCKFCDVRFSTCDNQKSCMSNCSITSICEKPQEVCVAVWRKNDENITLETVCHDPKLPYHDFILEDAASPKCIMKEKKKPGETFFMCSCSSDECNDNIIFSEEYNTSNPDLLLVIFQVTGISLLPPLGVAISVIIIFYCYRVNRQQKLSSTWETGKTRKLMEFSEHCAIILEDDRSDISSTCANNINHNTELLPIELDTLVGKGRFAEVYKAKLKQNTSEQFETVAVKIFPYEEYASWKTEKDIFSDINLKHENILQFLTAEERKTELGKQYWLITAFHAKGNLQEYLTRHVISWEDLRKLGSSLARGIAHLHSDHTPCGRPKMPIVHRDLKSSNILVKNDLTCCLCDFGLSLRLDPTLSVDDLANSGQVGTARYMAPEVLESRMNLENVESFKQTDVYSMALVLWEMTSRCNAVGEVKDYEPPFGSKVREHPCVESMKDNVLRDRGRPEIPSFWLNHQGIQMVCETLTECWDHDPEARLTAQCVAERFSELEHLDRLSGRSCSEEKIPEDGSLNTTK

Take `Cc1cc([C@@H](C)Nc2ccccc2C(=O)O)c2nc(N3CCOCC3)cc(=O)n2c1` [AZD-6482]: the % of control in test [1] and in [2] was 100% each time.

As to `Cc1cc(C)cc([C@@H]2c3cc(C)ccc3NC(=O)CN2C(=O)c2ccc(Br)s2)c1`, the % of inhibition in test [3] is -18%.

In the case of `C=CC(=O)Nc1cc(-n2c(=O)ccc3cnc4ccc(-c5ccc(NS(C)(=O)=O)cc5)cc4c32)ccc1C`, the % of control in test [4] (at 1 µM) was 93%; in [4] (at 10 µM), 58%.

As to `CC[C@@H]1[C@H](F)C(=O)N[C@@H]1COc1nccc2cc(C(N)=O)c(OC)cc12` [ZIMLOVISERTIB], the % of inhibition was 5.58% in [5] and 6.17% in [6].

For `COc1cc(N(C)c2ccnc3ccc(C(F)(F)F)cc23)cc(OC)c1OC`, in test [7], the % binding turned out to be 54%.

With `COCC(=O)NC/C=C/c1ccc2ncnc(Nc3ccc(Oc4ccc(C)nc4)c(C)c3)c2c1` [CP-724714], the values for the % of control in [8] and in [9] were 93% and 89%, respectively.

Consider `CN1Cc2nccc(-c3cn(C)nc3-c3ccc(F)cc3)c2C1=O`, for which the % of inhibition in test [10] was 3%.

For `O[C@H]1CC[C@H](Nc2ncc3nc(Nc4c(F)cc(F)cc4F)n([C@H]4CCOC4)c3n2)CC1`, the % of control is 71% in test [11] and 98% in test [12].
